Results on 5 compounds are retold here after ChEMBL document CHEMBL5346961, “Discovery and Evaluation of 3-Quinoxalin Urea Derivatives as Potent, Selective, and Orally Available ATM Inhibitors Combined with Chemotherapy for the Treatment of Cancer via Goal-Oriented Molecule Generation and Virtual Screening” (J Med Chem, 2023).

Active and inactive are the calls of the source. The calls are words filed in the database; no cut-off is given here.

Series [1] deals with Serine/threonine-protein kinase ATR (Homo sapiens, UniProt Q13535). The series is described as follows: Inhibition of ATR (unknown origin) assessed as remaining activity at 1 uM in presence of [gamma33P-ATP] by radiometric assay.
Sequence of Serine/threonine-protein kinase ATR (Q13535 whole entry, looked up): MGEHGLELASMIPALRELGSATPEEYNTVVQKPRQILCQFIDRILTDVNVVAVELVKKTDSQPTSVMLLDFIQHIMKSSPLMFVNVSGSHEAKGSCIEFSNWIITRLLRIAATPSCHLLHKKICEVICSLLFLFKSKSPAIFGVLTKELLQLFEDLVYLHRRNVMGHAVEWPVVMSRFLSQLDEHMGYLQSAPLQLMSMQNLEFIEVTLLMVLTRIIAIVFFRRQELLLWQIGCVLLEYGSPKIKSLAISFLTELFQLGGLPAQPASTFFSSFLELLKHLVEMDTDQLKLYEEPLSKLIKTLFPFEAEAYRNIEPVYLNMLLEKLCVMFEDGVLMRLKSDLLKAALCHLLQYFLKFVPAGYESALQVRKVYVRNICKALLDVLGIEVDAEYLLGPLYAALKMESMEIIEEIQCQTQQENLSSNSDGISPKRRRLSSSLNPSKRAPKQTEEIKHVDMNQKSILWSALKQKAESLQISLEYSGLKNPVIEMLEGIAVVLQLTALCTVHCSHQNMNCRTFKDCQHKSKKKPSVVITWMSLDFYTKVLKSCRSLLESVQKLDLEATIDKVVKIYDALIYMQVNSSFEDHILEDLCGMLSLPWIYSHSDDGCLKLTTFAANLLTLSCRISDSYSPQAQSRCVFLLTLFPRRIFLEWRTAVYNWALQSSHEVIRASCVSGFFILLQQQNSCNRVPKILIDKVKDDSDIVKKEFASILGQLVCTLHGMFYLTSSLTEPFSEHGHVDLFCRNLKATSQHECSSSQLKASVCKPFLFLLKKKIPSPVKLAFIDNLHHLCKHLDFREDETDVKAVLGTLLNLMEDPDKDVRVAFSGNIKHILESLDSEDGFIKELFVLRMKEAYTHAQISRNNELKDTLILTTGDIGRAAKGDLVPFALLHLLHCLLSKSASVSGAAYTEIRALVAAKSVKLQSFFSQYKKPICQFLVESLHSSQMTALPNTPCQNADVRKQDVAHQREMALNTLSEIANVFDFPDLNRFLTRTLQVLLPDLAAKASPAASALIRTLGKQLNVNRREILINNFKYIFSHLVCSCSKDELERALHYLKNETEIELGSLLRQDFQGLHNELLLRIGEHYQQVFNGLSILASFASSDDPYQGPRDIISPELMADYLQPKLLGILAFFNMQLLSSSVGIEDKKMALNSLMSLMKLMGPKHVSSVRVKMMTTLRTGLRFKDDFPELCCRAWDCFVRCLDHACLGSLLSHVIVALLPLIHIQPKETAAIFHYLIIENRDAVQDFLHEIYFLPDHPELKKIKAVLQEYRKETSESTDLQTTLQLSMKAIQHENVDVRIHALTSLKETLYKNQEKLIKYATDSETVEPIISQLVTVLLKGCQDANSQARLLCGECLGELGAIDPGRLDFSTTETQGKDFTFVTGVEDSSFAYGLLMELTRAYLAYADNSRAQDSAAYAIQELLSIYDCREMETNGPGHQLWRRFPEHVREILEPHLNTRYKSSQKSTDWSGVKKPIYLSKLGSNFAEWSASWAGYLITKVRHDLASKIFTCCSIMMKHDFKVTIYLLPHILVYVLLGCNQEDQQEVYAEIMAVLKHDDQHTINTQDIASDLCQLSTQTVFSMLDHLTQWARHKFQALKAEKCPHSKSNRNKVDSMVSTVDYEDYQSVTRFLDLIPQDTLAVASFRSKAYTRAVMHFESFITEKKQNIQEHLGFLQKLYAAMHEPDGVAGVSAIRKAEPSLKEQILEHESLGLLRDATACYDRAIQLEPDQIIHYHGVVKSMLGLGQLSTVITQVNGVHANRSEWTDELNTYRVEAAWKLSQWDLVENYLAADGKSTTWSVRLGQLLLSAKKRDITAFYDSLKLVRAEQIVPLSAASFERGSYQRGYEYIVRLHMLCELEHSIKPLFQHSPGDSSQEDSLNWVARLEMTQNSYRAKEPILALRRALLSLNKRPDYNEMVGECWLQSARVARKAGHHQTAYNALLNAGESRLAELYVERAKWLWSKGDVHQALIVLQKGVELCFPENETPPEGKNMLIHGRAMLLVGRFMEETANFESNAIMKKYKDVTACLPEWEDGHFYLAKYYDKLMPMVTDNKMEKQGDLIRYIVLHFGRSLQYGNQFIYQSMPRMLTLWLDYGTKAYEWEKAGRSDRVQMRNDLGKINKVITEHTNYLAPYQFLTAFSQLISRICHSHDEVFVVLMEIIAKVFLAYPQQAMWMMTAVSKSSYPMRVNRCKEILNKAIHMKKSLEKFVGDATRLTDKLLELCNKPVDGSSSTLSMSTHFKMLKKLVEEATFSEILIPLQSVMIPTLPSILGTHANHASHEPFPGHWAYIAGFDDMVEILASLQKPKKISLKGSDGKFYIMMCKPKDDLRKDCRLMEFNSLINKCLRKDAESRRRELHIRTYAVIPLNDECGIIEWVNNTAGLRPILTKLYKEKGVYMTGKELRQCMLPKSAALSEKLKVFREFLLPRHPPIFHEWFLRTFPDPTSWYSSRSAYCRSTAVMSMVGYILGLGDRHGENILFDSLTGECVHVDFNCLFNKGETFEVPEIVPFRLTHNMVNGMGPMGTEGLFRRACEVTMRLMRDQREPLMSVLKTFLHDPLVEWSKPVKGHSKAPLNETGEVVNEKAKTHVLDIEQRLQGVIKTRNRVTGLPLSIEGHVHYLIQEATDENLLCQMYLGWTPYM
Series [2] is described as follows: Metabolic stability in human liver microsomes assessed as clearance at 1 uM in presence of NADPH-regenerating system by LC-MS/MS analysis. Format: ADME, Microsome.
Series [3] is described as follows: Metabolic stability in human liver microsomes assessed as half life at 1 uM in presence of NADPH-regenerating system by LC-MS/MS analysis. Type of series: ADME, Microsome.
The target in series [4] is T1, Serine-protein kinase ATM (Homo sapiens, UniProt Q13315). The series can be described thus: Inhibition of ATM (unknown origin) assessed as remaining activity at 0.01 uM preincubated with compound for 30 mins followed by substrate addition and measured after 2 hrs by HTRF method relative to control. The settings on record: time 2.5 hrs. On the technique in general: TR-FRET usually uses a lanthanide donor and a delayed reading to cut background.

The target in series [5] is T1, Serine-protein kinase ATM. The series is described as follows: Inhibition of ATM (unknown origin) preincubated with compound for 30 mins followed by substrate addition and measured after 2 hrs by HTRF method.
The subject of series [6] is HCT-116. The series can be described thus: Inhibition of colony formation in human HCT-116 cells at 0.01 uM preincubated for 1 hr followed by exposure to 2 Gy gamma irradiation and measured after 1 week by crystal violet staining based […] assay relative to control. Format: functional. The settings on record: HCT-116, light or radiation study, time 169 hrs.

In series [7] the test system is HCT-116. The series is described as follows: Inhibition of colony formation in human HCT-116 cells preincubated for 1 hr followed by exposure to 2 Gy gamma irradiation and measured after 1 week by crystal violet staining based […] assay. Type of series: functional, cell-based. Particulars: HCT-116, light or radiation study.
Series [8] relates to HCT-116. The series can be described thus: Antiproliferative activity against human HCT-116 cells assessed as cell survival at 1 uM incubated for 6 days by MTT assay relative to control. Format: functional. Particulars: HCT-116, 144 h, time 6 day, read-out: Survival.
Series [9] has as its system SW-620. The series can be described thus: Antiproliferative activity against human SW620 cells assessed as reduction in cell viability incubated for 6 days by MTT assay. Type of series: functional, cell-based. Particulars: SW-620, 144 h.
Series [10] has as its system MCF7. The series can be described thus: Antiproliferative activity against human MCF7 cells assessed as reduction in cell viability incubated for 6 days by MTT assay. Format: functional, cell-based. The settings on record: MCF7, 144 h. For orientation: Tetrazolium dyes change colour on reduction, which living cells bring about.
In series [11] the test system is HCT-116. The series is described as follows: Inhibition of colony formation in human HCT-116 cells assessed as assessed as fold change in IC50 in presence of ionizing radiation. Type of series: functional.
Series [12] concerns MCF7. The series is described as follows: Synergistic antiproliferative activity against human MCF7 cells assessed as fold increase in etoposide IC50 at 200 nM measured after 6 days by MTT assay. Type of series: functional. Particulars: time 6 day.
Series [13] deals with MCF7. The series can be described thus: Synergistic antiproliferative activity against human MCF7 cells assessed as fold increase in irinotecan IC50 at 200 nM measured after 6 days by MTT assay. The settings on record: time 6 day. Format: functional.
Series [14] relates to MCF7. The series is described as follows: Synergistic antiproliferative activity against human MCF7 cells assessed as combination index at […] measured after 6 days in presence etoposide by MTT assay. Format: functional. The settings on record: dose lower 100 µM; time 6 day.
In series [15] the test system is MCF7. The series is described as follows: Synergistic antiproliferative activity against human MCF7 cells assessed as combination index at […] measured after 6 days in presence irinotecan by MTT assay. Format: functional. The settings on record: dose lower 100 µM; time 6 day.
Series [16] relates to SW-620. The series can be described thus: Antiproliferative activity against human SW620 cells assessed as reduction in cell viability measured after 6 days by MTT assay. Format: functional, cell-based. Particulars: SW-620, 144 h.
Series [17] relates to SW-620. The series is described as follows: Inhibition of colony formation in human SW620 cells measured after 1 week by crystal violet staining based […] assay. Type of series: functional, cell-based. Particulars: SW-620, 168 h.
The test system of series [18] is HCT-116. The series can be described thus: Induction of apoptosis in human HCT-116 cells assessed as viable cells at 5 uM measured after 2 days by AnnexinV-FITC/PI staining based analysis (reference value: 72.8%). Format: functional. Particulars: HCT-116, 48 h, time 2 day, read-out: Activity.
In series [19] the test system is HCT-116. The series is described as follows: Induction of apoptosis in human HCT-116 cells assessed as early apoptotic cells at 5 uM measured after 2 days by AnnexinV-FITC/PI staining based analysis (reference value: 14.4%). Type of series: functional. Particulars: time 2 day.
Series [20] relates to HCT-116. The series is described as follows: Induction of apoptosis in human HCT-116 cells assessed as late apoptotic cells at 5 uM measured after 2 days by AnnexinV-FITC/PI staining based analysis (reference value: 12.2%). Type of series: functional. The settings on record: time 2 day.
Series [21] has as its system HCT-116. The series is described as follows: Induction of apoptosis in human HCT-116 cells assessed as necrotic cells at 5 uM measured after 2 days by AnnexinV-FITC/PI staining based analysis (reference value: 0.64%). Format: functional. Particulars: time 2 day.
Series [22] concerns SW-620. The series is described as follows: Antitumor activity against human SW620 cells xenografted in BALB/c nude mouse model assessed as tumor growth inhibition at 40 mg/kg, ip administered once weekly for 21 days by caliper method relative to control. Type of series: functional. The settings on record: SW-620, 504 h, time 21 day, read-out: TGI. (In xenograft studies the graft and the host belong to different species.)

Series [23] in a line: Toxicity in BALB/c nude mouse assessed as reduction in body weight at 40 mg/kg, ip administered once weekly for 21 days relative to control. Format: organism-based. The arrangement: scale not given: the % may be the effect or the level left. Particulars: in vivo, 504 h, time 21 day.
Series [24] has as its system HCT-116. The series can be described thus: Induction of DNA damage in human HCT-116 cells assessed as upregulation of gammaH2AX at 25 uM measured after 4 hrs by Western blot analysis. Type of series: functional, cell-based.
The test system of series [25] is HCT-116. The series is described as follows: Induction of DNA damage in human HCT-116 cells assessed as upregulation of ATM phosphorylation at S1981 residue at 25 uM measured after 4 hrs by Western blot analysis. Format: functional, cell-based.
Series [26] relates to HCT-116. The series is described as follows: Induction of DNA damage in human HCT-116 cells assessed as upregulation of p21 at T145 residue at 25 uM measured after 4 hrs by Western blot analysis. Format: functional, cell-based.
The subject of series [27] is MCF7. The series is described as follows: cells. The settings on record: Homo sapiens, MCF7, 144 h.

Regarding `CN(C)CCCOc1ccc(-c2ccc3ncc(N(C)C(=O)NC4CCCC4)nc3c2)cn1`, the Activity in [1] is 100%; in series [4], 2%. Besides, the CLH in series [2] was determined as 64 mL/min/g. Moreover, the half-life at 1 µM in series [3] amounted to 22 min. Also, the IC50 in series [5] is 1 nM; in the series on HCT-116 [7], 1.56 nM. The same compound returned an inhibition at 0.01 µM in the series on HCT-116 [6] of 91.9%. For the same compound, the viability at 1 µM with HCT-116 [8] is over 83%.

On to `CC(C)NC(=O)N(C)c1cnc2ccc(-c3ccc(OCCCN4CCCC4)nc3)cc2n1`, for which the CLH in series [2] worked out at 5.2 mL/min/g. Moreover, the half-life at 1 µM in [3] was determined as 267 min. The IC50 in [5] is 1.75 nM; with HCT-116 [7], 1.76 nM; in the series on SW-620 [9], over 9000 nM; in the series on MCF7 [10] it was over 9000 nM. For the same compound, in the series on HCT-116 [6], 0.01 µM produced 83.8% inhibition. For the same compound, the viability at 1 µM in the series on HCT-116 [8] was over 83%. Besides, the “fold change (FC)” value with HCT-116 [11] is 8284; in the series with MCF7 [12], 3; in the series on MCF7 [13], 13. Further, the CI with MCF7 [14] and in the series on MCF7 [15] was under 1 each time.

As to `CN(C)CCCOc1ccc(-c2ccc3ncc(N(C)C(=O)NC4CC4)nc3c2)cn1`, the Activity in series [1] came to 114%; in [4] it was 17%. In addition, the CLH in [2] was 39 mL/min/g. Further, the half-life at 1 µM in series [3] stood at 41 min. Besides, the IC50 is 8 nM in series [5] and 15.3 nM with HCT-116 [7]. Besides, the inhibition at 0.01 µM in the series on HCT-116 [6] turned out to be 43.9%. In addition, in the series on HCT-116 [8], the viability at 1 µM is over 83%.

As for `CCc1c2c(nc3ccc(OC(=O)N4CCC(N5CCCCC5)CC4)cc13)-c1cc3c(c(=O)n1C2)COC(=O)[C@]3(O)CC` [IRINOTECAN], the half-inhibitory concentration (IC50) in the series on SW-620 [16] was determined as 980 nM; in the series with SW-620 [17], 230 nM; in the series on MCF7 [27] it was 910 nM. For the same compound, the viability at 5 µM with HCT-116 [18] amounted to 52.3%. For the same compound, the Activity in the series with HCT-116 [19] was 26%; with HCT-116 [20], 19.9%; in the series with HCT-116 [21], 1.7%; in series [23], under 12%. Also, the inhibition in vivo at 40 mg/kg in the series with SW-620 [22] turned out to be 69.2%. In addition, the outcome with HCT-116 [24] was inactive. Also, the result with HCT-116 [25] and in the series with HCT-116 [26] was Active.

As for `CCCCNC(=O)N(C)c1cnc2ccc(-c3ccc(OCCCN(C)C)nc3)cc2n1`, the Activity in [1] amounted to 105%; in series [4], 3%. Also, the CLH in series [2] is 64 mL/min/g. Besides, the half-life at 1 µM in series [3] was 22 min. In addition, the results for the IC50 (in series [5]; with HCT-116 [7]) were 0.8 nM and 7.65 nM, respectively. At 0.01 µM the inhibition in the series with HCT-116 [6] was 92.7%. Further, the viability at 1 µM in the series on HCT-116 [8] was over 83%.

The term half-life denotes the time in which the quantity being followed falls by half. The IC50 is the midpoint of a concentration-inhibition curve. Broadly, the inhibition is the relative decrease from the control value, in per cent.
